EP1363614B1, “USE OF 2-AMINO-1-(4-HYDROXY-3-METHANESULPHONAMIDOPHENYL)ETHANOL FOR TREATING URINARY INCONTINENCE” (Boehringer Ingelheim Pharma GmbH & Co. KG, priority 2001, dated 2002)

Tests used:
[1] = Metabolism: substrate breakdown by the enzyme CYP2D6; type: in vitro ADME; settings: 30 minutes' incubation with CYP2D6; read-out: % Substrate breakdown after 30 minutes' incubation with CYP2D6
Experimental: To determine the metabolism the enzyme CYP2D6 was allowed to act on the hydrochloride of the compound 1 according to the formula I (2-amino-1-(4-hydroxy-3-methanesulphonamidophenyl)ethanol). After 30 minutes a check was made to determine how much of the substance had been broken down by the enzyme. (-)-R-2-Amino-1-(2-fluoro-5-methanesulphonamido-phenyl)ethanol 2 was used as a comparison.

[2] = system: dog's femoral artery; carotid artery in the dog; experiment: Selectivity in the dog: femoral artery versus carotid artery contraction; type: cell-based; settings: difference of percentage contraction of dog's femoral artery at 10^-5 M and percentage contraction of carotid artery at 10^-5 M
Experimental: (§1) The efficacy and selectivity of the compound according to the invention is determined as follows, using the same findings as described in 1:
Selectivity in the dog is the difference obtained from the percentage contraction of the dog's femoral artery at 10^-5 M and percentage contraction of the carotid artery in the dog at 10^-5 M.

[3] = system: human urethra; experiment: Efficacy: contraction of human urethra compared with noradrenaline; type: cell-based; settings: percentage of contraction compared with noradrenaline
Experimental: as §1
Maximum contraction in the dog and activity on human urethra are percentages of contraction compared with noradrenaline.

| SMILES | metabolised at 0.5 h [1] [%] | selectivity in the dog [2] | Emax [3] [%] |
| --- | --- | --- | --- |
| CS(=O)(=O)Nc1cc(C(O)CN)ccc1O (stereo not drawn) [Compound 1, 2-amino-1-(4-hydroxy-3-methanesulphonamidophenyl)ethanol] | 1.4 | 53 | 120 |
| CS(=O)(=O)Nc1ccc(F)c([C@@H](O)CN)c1 [Compound 2, (-)-R-2-Amino-1-(2-fluoro-5-methanesulphonamido-phenyl)ethanol] | 2.1 | 40 | 48 |
